Assay results taken from the NIST ThermoML archive (doi:10.1016/j.jct.2005.11.012).

Key:
[1] = refractive index (Na D-line) (dimensionless); xn = mol fraction of the nth substance listed; conditions: 101 kPa, Liquid
[2] = xn = mol fraction of the nth substance listed; conditions: 101 kPa, Liquid
[3] = 101 kPa, Liquid
[4] = refractive index (Na D-line) (dimensionless); conditions: 101.33 kPa, Liquid

CCCCCCCCO [octan-1-ol] + BrC(Br)C(Br)Br
x2 = 0
Conditions | mass density, [2] [kg/m3] | refractive index, [1]
293.15 K | 824.99 | 1.42958
303.15 K | 818.09 | 1.42562

CCCCCO [pentan-1-ol]
Conditions | mass density, [3] [kg/m3] | refractive index, [4]
293.15 K | 815.03 | 1.40995
303.15 K | 807.6 | 1.40592

BrC(Br)C(Br)Br [1,1,2,2-tetrabromoethane] + CCCCCCCCCCO
Conditions | mass density, [2] [kg/m3] | refractive index, [1]
293.15 K, x1 = 0.1023 | 968.19 | 1.44929
293.15 K, x1 = 0.202 | 1114.37 | 1.46226
293.15 K, x1 = 0.3012 | 1272.36 | 1.47639
293.15 K, x1 = 0.4012 | 1446.62 | 1.49207
293.15 K, x1 = 0.5007 | 1636.66 | 1.50944
293.15 K, x1 = 0.6006 | 1847.04 | 1.52888
293.15 K, x1 = 0.7011 | 2081.74 | 1.55057
293.15 K, x1 = 0.8006 | 2340.68 | 1.57518
293.15 K, x1 = 0.9006 | 2632.79 | 1.60321
293.15 K, x1 = 1 | 2963.2 | 1.63535
303.15 K, x1 = 0.1023 | 960.09 | 1.44494
303.15 K, x1 = 0.202 | 1104.97 | 1.45758
303.15 K, x1 = 0.3012 | 1261.57 | 1.47147
303.15 K, x1 = 0.4012 | 1434.34 | 1.48697
303.15 K, x1 = 0.5007 | 1622.78 | 1.50399
303.15 K, x1 = 0.6006 | 1831.45 | 1.52315
303.15 K, x1 = 0.7011 | 2064.32 | 1.54493
303.15 K, x1 = 0.8006 | 2321.36 | 1.56925
303.15 K, x1 = 0.9006 | 2611.47 | 1.59716
303.15 K, x1 = 1 | 2939.86 | 1.62926

CCCCCCO [hexan-1-ol]
Conditions | mass density, [3] [kg/m3] | refractive index, [4]
293.15 K | 818.92 | 1.41826
303.15 K | 811.73 | 1.41423

BrC(Br)C(Br)Br [1,1,2,2-tetrabromoethane] + CCCCCCO
Conditions | mass density, [2] [kg/m3] | refractive index, [1]
293.15 K, x1 = 0.1001 | 1021.6 | 1.43743
293.15 K, x1 = 0.2007 | 1227.75 | 1.45713
293.15 K, x1 = 0.3004 | 1434.26 | 1.4771
293.15 K, x1 = 0.4004 | 1643.89 | 1.49787
293.15 K, x1 = 0.5005 | 1856.54 | 1.51914
293.15 K, x1 = 0.6008 | 2072.22 | 1.54101
293.15 K, x1 = 0.6999 | 2288.24 | 1.56327
293.15 K, x1 = 0.8012 | 2512.37 | 1.58693
293.15 K, x1 = 0.9001 | 2734.51 | 1.61052
293.15 K, x1 = 1 | 2963.2 | 1.63535
303.15 K, x1 = 0.1001 | 1012.63 | 1.43304
303.15 K, x1 = 0.2007 | 1216.94 | 1.45244
303.15 K, x1 = 0.3004 | 1421.62 | 1.47214
303.15 K, x1 = 0.4004 | 1629.48 | 1.49244
303.15 K, x1 = 0.5005 | 1840.42 | 1.51355
303.15 K, x1 = 0.6008 | 2054.51 | 1.53523
303.15 K, x1 = 0.6999 | 2269.06 | 1.55749
303.15 K, x1 = 0.8012 | 2491.76 | 1.58095
303.15 K, x1 = 0.9001 | 2712.53 | 1.60452
303.15 K, x1 = 1 | 2939.86 | 1.62926

BrC(Br)C(Br)Br [1,1,2,2-tetrabromoethane] + CCCCCO
Conditions | mass density, [2] [kg/m3] | refractive index, [1]
293.15 K, x1 = 0.1009 | 1048.36 | 1.43257
293.15 K, x1 = 0.2014 | 1276.63 | 1.45508
293.15 K, x1 = 0.3004 | 1497.47 | 1.47732
293.15 K, x1 = 0.4003 | 1716.5 | 1.49977
293.15 K, x1 = 0.5014 | 1934.64 | 1.52252
293.15 K, x1 = 0.6001 | 2144.16 | 1.54476
293.15 K, x1 = 0.7001 | 2353.22 | 1.56734
293.15 K, x1 = 0.7998 | 2558.61 | 1.58989
293.15 K, x1 = 0.8997 | 2761.73 | 1.61255
293.15 K, x1 = 1 | 2963.2 | 1.63535
303.15 K, x1 = 0.1009 | 1038.85 | 1.42823
303.15 K, x1 = 0.2014 | 1265.1 | 1.45052
303.15 K, x1 = 0.3004 | 1484.08 | 1.47247
303.15 K, x1 = 0.4003 | 1701.36 | 1.49475
303.15 K, x1 = 0.5014 | 1917.88 | 1.51723
303.15 K, x1 = 0.6001 | 2125.93 | 1.53938
303.15 K, x1 = 0.7001 | 2333.58 | 1.5616
303.15 K, x1 = 0.7998 | 2537.64 | 1.58403
303.15 K, x1 = 0.8997 | 2739.49 | 1.60652
303.15 K, x1 = 1 | 2939.86 | 1.62926
